The values that follow come from patent US20250213719A1, “MAGNETIC NANOPARTICLES AND METHODS OF DRUG RELEASE” (University of Notre Dame du Lac, priority 2022, published 2025).

Common to all, as to assay type: cell-based
Test [1] concerns MDA-MB-231 triple-negative breast cancer cells. To be noted: free or released from Dox-MagSiNs by AC magnetic field. As to the method:
(§1) The media in each well of the chamber slides was carefully aspirated, and the wells were rinsed twice with 400 μL of 1×PBS. The cells were incubated with Ethidium-homodimer Ill dye and Calcein-AM dye mix at manufacturer recommended concentrations (Life-technologies), and the slides were incubated for 30 minutes in the cell incubator, in the dark. After incubation, the wells were rinsed twice with 400 μL of 1×PBS. Lastly, 300 μL of 4% buffered parafomaldehyde was added to each well, and the slides were taken to be imaged with a NikonU inverted fluorescent microscope with a 10× lens using a standard FITC/RITC green and red fluorescent filter cubes.
Viable cell populations of treated and untreated control cancer cell lines and treated and untreated normal cell lines were determined at the end of each run using a calcein-AM/propidium iodide assay to determine total cells and viable cell populations. […] When PI does gain access to nucleic acids and intercalates, its fluorescence increases dramatically and is therefore used to identify dead cells. […]
In this study, for each sample set (control group or test group), the total number of cells with green fluorescence and the total number of cells with red fluorescence were counted as separate datasets. […] For each sample set, the percent dead-cells and percent live-cells was calculated. […]

The subject of a further test is HUVEC cells. Put plainly: Live/dead cell viability assay. To be noted: free or released from Dox-MagSiNs by AC magnetic field, permanent magnet 24 h then AC field 10 h, assay at 48 h. As to the method:
as §1
(§2) Viable cell populations of treated and untreated control cancer cell lines and treated and untreated normal cell lines were determined at the end of each run using a calcein-AM/propidium iodide assay to determine total cells and viable cell populations. The calcein-AM assay is based on the conversion of the cell permeant non-fluorescent calcein-AM dye to the fluorescent calcein dye by intracellular esterase activity in live cells. […] When PI does gain access to nucleic acids and intercalates, its fluorescence increases dramatically and is therefore used to identify dead cells. Calcein-Am and PI can be used separately or together to assess cellular viability or cell death, respectively.
(§3) In this study, for each sample set (control group or test group), the total number of cells with green fluorescence and the total number of cells with red fluorescence were counted as separate datasets. […] For each sample set, the percent dead-cells and percent live-cells was calculated. The percent live-cells was used as a measure of viability. A paired t-test under the assumption of comparing two-samples with equal variances and a >=0.05 was used to determine the statistical significance of the test-groups in comparison to the control groups.
(§4) A unidirectional magnetic field of 30-50 Gauss and an alternating magnetic field of 100 Hz, 30-50 Gauss were used for these experiments.

Test [2] relates to PC-3 prostate cancer cells. Put plainly: Live/dead cell viability assay. To be noted: 500 nM Dox, free or released from Dox-MagSiNs by AC magnetic field, hydrochloride. The method, then:
as §1, §2, §3, §4

In test [3] the test system is A2780 ovarian cancer cells. Put plainly: Live/dead cell viability assay. To be noted: free or released from Dox-MagSiNs by AC magnetic field. The method, then: as §1, §2, §3, §4

SMILES strings stand for the structures. Where “and” joins values, the source holds several entries; their conditions need not be identical. Equal entries are not always repeated. Where two headings read alike, the source gives them in different places.

As for `COc1cccc2c1C(=O)c1c(O)c3c(c(O)c1C2=O)C[C@@](O)(C(=O)CO)C[C@@H]3O[C@H]1C[C@H](N)[C@H](O)[C@H](C)O1.Cl` [Dox·HCl, doxorubicin hydrochloride], the cell death result in test [1] (20 nM Dox) is “insignificant cell death”; in test [1] (500 nM Dox), 4%; in the test on HUVEC cells (20 nM Dox·HCl) it was 100%; in the test on HUVEC cells (500 nM Dox·HCl), 100%; in test [2] it was 100%; in test [2] (listed as Dox), 100% and > 95%. For the same molecule, the cell death was over 20% in test [3] (20 nM Dox); 83% in test [3] (500 nM Dox, hydrochloride); 83% and 80-85% in test [3] (500 nM Dox, listed as Dox, hydrochloride).
